Laboratory results reported in patent publication US12527773B2, “Flavi-block: a pan-flavivirus inhibitor” (Baden-Württemberg Stiftung GmbH, priority 2020, dated 2026).
Like-named read-outs stand apart in the source and are kept apart here.

What was measured:
KUNV (MRM61C strain) = assay: Plaque assay of released virus, KUNV-infected Vero cells; type: cell-based, Kunjin virus; conditions: West Nile virus
Method: Vero cells were infected with KUNV at an MOI of 1 for 2 h (post infection), after which virus was removed, and fresh maintenance medium containing 2% FCS together with the indicated concentration of C10 added. For co-treat condition, Vero cells were infected with KUNV at an MOI of 1 in the presence of C10 for 2 h, followed by removal of the virus/C10 inoculums, and addition of fresh 2% fetal calf serum maintenance medium.
Vero and BHK-21 cells were maintained in DMEM media supplemented with 10% heat-inactivated FBS at 37° C. in a humidified incubator supplemented with 5% CO2; A549 cells were maintained in F-12K medium supplemented with 10% heat-inactivated Fetal Bovine Serum (FBS), 2 mM L-glutamine, 50 U/I penicillin, 0.05 mg/l streptomycin. DENV-1-4 strains, cell culture conditions and Gen-Bank accession numbers, as well as details of RSV strains and culture are known in the art. […] Viral titer was subsequently determined by plaque assay (see below).
Vero cells were seeded into 24-well plates at a density of 2×10^5 cells/well and grown overnight in culture medium at 37° C. with 5% CO2 prior to infection with RSV, KUNV, ZIKV as indicated. BHK-21 cells were used for DENV1-4. […] The stain was removed by rinsing the cells with tap water, and the viral plaques were counted visually. […]

[1] = Pharmacokinetic study in Balb/c mice, peroral administration; type: in vivo; conditions: for Plasma concentration, Group A-D: single animals
Method: Study design, animal selection, handling and treatment were all in accordance with the study protocols and institutional animal care and use guidelines. Male Balb/c mice (9-10 weeks old, body weight 22.3 to 38.1 g and average body weight across all groups 31.4 g, SD=3.20 g) were used in this study. The animals were randomly assigned to the treatment groups before the pharmacokinetic study; all animals were fasted for 4 h before dosing. Six time points for PO (15, 30, 60, 120, 240 and 360 min) and IV (5, 15, 30, 60, 120 and 240 min) routes were used in this pharmacokinetic study. Each of the PO and IV time point treatment groups included 4 animals. There was also control group of 2 animals. Dosing was done according to the treatment schedules outlined in Table 3. Mice were injected IV with 2,2,2-tribromoethanol at the dose of 150 mg/kg prior to taking blood. Blood collection was performed from the orbital sinus in microtainers containing K2EDTA. Animals were sacrificed by cervical dislocation after blood samples collection. All samples were immediately prepared, flash-frozen and stored at −70° C. until subsequent bioanalysis.
Samples Processing Plasma samples ([…]) were mixed with […] of IS solution. After mixing by pipetting and centrifuging for 4 min at 6,000 rpm, […] of each supernatant was injected into LC-MS/MS system. Solution of compound IS-02-03 (200 ng/ml in acetonitrile-methanol mixture, 1:1, v/v) was used as internal standard (IS) for quantification of C10 in plasma samples. Samples Analysis The concentrations of C10 were determined using high performance liquid chromatography/tandem mass spectrometry (HPLC-MS/MS). Shimadzu H PLC system comprised of 2 isocratic pumps LC-10Advp, an autosampler SIL-HTc, a sub-controller FCV-14AH and a degasser DGU-14A. Mass spectrometric analysis was performed using an API 3000 (triple-quadrupole) instrument from AB Sciex (Canada) with an electro-spray (ESI) interface. The data acquisition and system control was performed using Analyst 1.5.2 software from AB Sciex. HPLC-MS/MS Conditions
The pharmacokinetic data analysis was performed using non-compartmental, bolus injection or extravascular input analysis models in WinNonlin 5.2 (PharSight). Data below LLOQ were presented as missing to improve validity of T1/2 calculations. No outlier data points were removed from calculations. The bioavailability for the peroral route was calculated as: […]

## CCN1/C(=C\C=C\c2sc3cc(NC(C)=O)ccc3[n+]2CC)Sc2cc(NC(C)=O)ccc21.[I-] [C10, 6-acetamido-2-((1E,3E)-3-(6-acetamido-3-ethylbenzo[d]thiazol-2(3H)-ylidene)prop-1-en-1-yl)-3-ethylbenzo[d]thiazol-3-ium iodide]
KUNV (MRM61C strain); read-out: EC50 from plaque assays, KUNV, c.t.
  EC50: 50 nM
KUNV (MRM61C strain); read-out: EC50 from plaque assays, KUNV, p.i.
  EC50: 420 nM
[1]; PO 10 mg/kg versus IV 5 mg/kg
  oral bioavailability: zero
[1]; PO 10 mg/kg, 15 min
  Plasma concentration, Mean: 0 ng(ml)
[1]; PO 10 mg/kg, 15 min, below LLOQ 10 ng/ml designated as zero
  Plasma concentration, Group A-D: 0 ng(ml)
[1]; PO 10 mg/kg, 30 min
  Plasma concentration, Mean: 0 ng(ml)
[1]; PO 10 mg/kg, 30 min, below LLOQ designated as zero
  Plasma concentration, Group A-D: 0 ng(ml)
[1]; PO 10 mg/kg, 60 min
  Plasma concentration, Mean: 0 ng(ml)
[1]; PO 10 mg/kg, 60 min, below LLOQ designated as zero
  Plasma concentration, Group A-D: 0 ng(ml)
[1]; PO 10 mg/kg, 120 min
  Plasma concentration, Mean: 0 ng(ml)
[1]; PO 10 mg/kg, 120 min, below LLOQ designated as zero
  Plasma concentration, Group A-D: 0 ng(ml)
[1]; PO 10 mg/kg, 240 min
  Plasma concentration, Mean: 0 ng(ml)
[1]; PO 10 mg/kg, 240 min, below LLOQ designated as zero
  Plasma concentration, Group A-D: 0 ng(ml)
[1]; PO 10 mg/kg, 360 min
  Plasma concentration, Mean: 0 ng(ml)
[1]; PO 10 mg/kg, 360 min, below LLOQ designated as zero
  Plasma concentration, Group A-D: 0 ng(ml)
[1]; PO 10 mg/kg, LLOQ 10 ng/ml
  plasma levels following PO dosing: below the lower limit of quantitation
